The subject of one series is diet-induced obese mice. The series is described as follows: Intraperitoneal glucose tolerance test (ipGTT). In kind it is in vivo, mouse. The conditions noted are these: glucose 2 g/kg BW ip, overnight fasted, VHFD 24 weeks. As for the experimental part: FIGS. 5C-D are a pair of line graphs Plasma glucose levels (FIG. 5C) and (FIG. 5D) Plasma insulin levels after an intraperitoneal glucose administration ([…] BW ip) in overnight fasted mice fed in VHFD for 24-weeks and 16-weeks of continuous infusions of vehicle or GLP-1(32-36)amide. ***p<4E-03 vehicle vs. GLP-1(32-36)amide, *p<0.01 vehicle vs. GLP-1(32-36)amide, **p<0.004 vehicle vs. GLP-1(32-36)amide, *****p<1.7E-05 vehicle vs. GLP-1(32-36)amide, ****p<6.7 E-04 vehicle vs. GLP-1(32-36)amide.
Mice were maintained in a normal light/dark cycle according to the standard protocols of the MGH Animal Care and Use Committee. Mice were tested with age matched or litter mate controls and 6 mice per group are required. […] The following morning the mice were prepared for the glucose tolerance test: animals were weighed, the tail was nicked with a fresh razor blade by a horizontal cut of the very end, ˜35 to 50 microliters of blood is massaged from the tail to an eppendorf tube which is immediately placed on ice, baseline blood glucose is measured by the glucose oxidase method using a Glucometer Elite glucometer, and 2 grams/kg body weight of 20% D-glucose is drawn up in a Beckton Dickenson D 29 gage ½″ insulin syringe (one unit of D-glucose for every gram of body weight). Animals were then transferred to individually labeled 1000 cc cardboard soup cups with the lid liners removed.
Following animal preparation, glucose was injected into the intraperitoneal cavity. At 10, 20, 30, 60, 120, and 140 minutes blood glucose is sampled from the tail of each mouse by gently massaging a small drop of blood onto the glucometer strip. Glucose injections and blood glucose sampling is timed to take approximately the same amount of time per animal (i.e. 25 animals are injected in 12 minutes and blood glucose sampling of those same 25 animals should also take about 12 minutes) so that the sample times are accurate for each animal.

Series [1] in a line: Plasma peptide concentrations by LC-MS after continuous infusion. Type of series: in vivo, mouse. The method, then: (§1) Mice were given single i.v. injections of the propeptide, GLP-1(9-36)amide and blood samples were taken at times 2, 5, and 10 min. Plasma was assayed for the presence of GLP-1(9-36)amide, GLP-1(28-36)amide, and GLP-1(32-36)amide by electron spray mass spectrometry (ES-MS. Pooled plasma samples collected after a 28 day continuous infusion of GLP-1(9-36)amide or GLP-1(28-36)amide in mice were assayed for peptide concentrations by liquid chromatography mass spectrometry (LC-MS).

Series [2] has as its system insulin-resistant isolated mouse hepatocytes. The series is described as follows: Glucose production assay in isolated hepatocytes. The conditions noted are these: stimulated by cAMP/dexamethasone/lactate; basal glucose production not suppressed. Type of series: cell-based. The text has this: FIG. 8 is a bar graph showing suppression of glucose production by the pentapeptide GLP-1(32-36)amide (LVKGRamide (SEQ ID NO:1)) in insulin-resistant hepatocytes. Mice (male, C57bl/6) from 12-19 weeks of age were fasted overnight (16 hrs) and primary hepatocytes were isolated using a collagen and perfusion gradient purification. Cells were first seeded using a Dulbecco's modified Eagle's medium (DMEM) supplemented with 10% FBS, 1 g/L glucose, 2 mmol/1 sodium pyruvate, 1 micromol/L dexamethasone, and 0.1 micromol/L insulin, and later maintained in DMEM with 0.2% BSA, 1 g/L glucose, 0.1 micromol/L dexamethasone, and lnmol/L insulin. […] The readings were then normalized to total protein content determined from whole-cell lysates. […]
Primary hepatocytes (2×10^5 cells per well in twelve-well plates) were pre-treated with GLP-1(32-36)amide for 1 hour followed by the stimulation of insulin resistance by the addition of cAMP (10 microM)/dexamethasone ([…])/sodium lactate (2 mM) in glucose-free DMEM without phenol red. […] The readings were then normalized to total protein content determined from whole-cell lysates.

Series [3] is described as follows: Mass spectrometry of mouse plasma after i.v. injection of GLP-1(9-36)amide. In kind it is in vivo. As for the experimental part:
FIG. 7B is a line graph showing the results of experiments involving intravenous push injection of GLP-1(9-36)amide, 32-36 amide, and […] into mice, collecting blood plasma at 2, 5, and 10 min, and analyzing the peptide profiles by liquid chromatography-mass spectrometry (LC-MS). Relative amounts of peptides at times indicated are shown. Y-axis, arbitrary units
as §1

The mark [4] stands for this setting: pooled mouse plasma after four weeks infusion.

Where no end group is shown, it is not given here.

For the substance “FIAWLVKGR-NH2 [GLP-1(28-36)amide, FIAWLVKGRamide]”, the “glycemic response in ipGTT” value with diet-induced obese mice (16 weeks infusion (FIG. 5C)) is “normal glycemic response”. In addition, the “insulin response in ipGTT” value in the series with diet-induced obese mice (16 weeks infusion (FIG. 5D)) is reported as “strong insulin response”. Besides, the level at time molar at 672 h in series [1] (mouse, plasma, 2.0 mg/ml in the osmopump, four weeks infusion, read-out: plasma levels of GLP-1(28-36)amide in mice infused with GLP-1(28-36)amide) is about 0.24 nM. The “plasma levels of GLP-1(28-36)amide in mice infused with GLP-1(9-36)amide” value in series [1] (setting [4]) was about 0.1 nM. Moreover, the “glucose production (formation)” value in series [2] is recorded as “dose-dependently suppressed”.
Turning to GLP-1(9-36)amide, the “presence of nona and pentapeptides in plasma after injection of GLP-1(9-36)amide” value in series [3] (mouse plasma 2 min after i.v. injection, mass spectrometry) is given as “readily detected”. For the same substance, the “conversion of GLP-1(9-36)amide to the nona and pentapeptides in the circulation” value in series [3] (mouse plasma, i.v. pulse injection) is on record as “rapidly converted”. In series [1] (setting [4]), the “plasma concentration of GLP-1(9-36)amide during its continuous infusion” value is given as “not detectable”.
